What all share (test): relative viability (nuclei count vs DMSO), 5 days (fraction); higher = more cells survive
Compound in assay [1]: CC1=CC(=CC=C1)NC2=NC(=CS2)C3=CC=NC=C3 + Cc1cc(Nc2cc(N3CCN(C)CC3)nc(Sc3ccc(NC(=O)C4CC4)cc3)n2)n[nH]1 [Tozasertib] (partner 0.1 µM)
The procedure, abridged:
(§1)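 Medians of duplicate plates are given as relative viability. That measure is the nuclei count in treated wells divided by the count in vehicle wells. Counts were taken on 4× images of lung cancer cell lines in 1536-well plates, 5 days after pin-tool dosing the day after seeding with one drug alone or a fixed anchor-drug dose plus five library-drug doses (not always all listed) in √10 steps.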

Compound in the assay “Masitinib + Foretinib”: Cc1ccc(NC(=O)c2ccc(CN3CCN(C)CC3)cc2)cc1Nc1nc(-c2cccnc2)cs1 [Masitinib] + COc1cc2c(Oc3ccc(NC(=O)C4(C(=O)Nc5ccc(F)cc5)CC4)cc3F)ccnc2cc1OCCCN1CCOCC1 [Foretinib] (partner 0.25 µM)
The essentials: as §1

Compound in the assay “Masitinib + Bortezomib”: Cc1ccc(NC(=O)c2ccc(CN3CCN(C)CC3)cc2)cc1Nc1nc(-c2cccnc2)cs1 [Masitinib] + CC(C)C[C@H](NC(=O)[C@H](Cc1ccccc1)NC(=O)c1cnccn1)B(O)O [Bortezomib] (partner 0.002 µM)
The essentials: as §1

Compound in the assay “Masitinib + Linsitinib”: Cc1ccc(NC(=O)c2ccc(CN3CCN(C)CC3)cc2)cc1Nc1nc(-c2cccnc2)cs1 [Masitinib] + C[C@]1(O)C[C@@H](c2nc(-c3ccc4ccc(-c5ccccc5)nc4c3)c3c(N)nccn32)C1 [Linsitinib] (partner 1 µM)
The procedure, abridged: as §1

This is an account of results in the supplement of paper PMC10307832.

Consider NCI-H3122, for which the relative viability in assay [1] (first compound 0.08 µM) was found to be 0.386; in assay [1] (first compound 0.253 µM), 0.455; in assay [1] (first compound 0.8 µM), 0.47; in assay [1] (first compound 2.53 µM) it was 0.384; in assay [1] (first compound 8 µM), 0.457; with Masitinib + Foretinib (first compound 0.01 µM), 0.89. In addition, the relative viability with Masitinib + Foretinib (first compound 0.03162 µM) was determined as 1; with Masitinib + Foretinib (first compound 0.1 µM), 1.05; with Masitinib + Foretinib (first compound 0.3162 µM), 1.01; with Masitinib + Foretinib (first compound 1 µM), 0.887; with Masitinib + Bortezomib (first compound 0.01 µM) it was 1.09; with Masitinib + Bortezomib (first compound 0.03162 µM) it was 0.997. For the same cell line, the relative viability amounted to 1.1 with Masitinib + Bortezomib (first compound 0.1 µM); 1.03 with Masitinib + Bortezomib (first compound 0.3162 µM); 0.984 with Masitinib + Bortezomib (first compound 1 µM); 1.01 with Masitinib + Linsitinib (first compound 0.01 µM); 1.01 with Masitinib + Linsitinib (first compound 0.03162 µM); 1.06 with Masitinib + Linsitinib (first compound 0.1 µM). In addition, the relative viability with Masitinib + Linsitinib (first compound 0.3162 µM) was determined as 0.828; with Masitinib + Linsitinib (first compound 1 µM), 1.1.

For PC-3 [JPC-3], the relative viability in assay [1] (first compound 0.08 µM) stood at 0.837; in assay [1] (first compound 0.253 µM) it was 0.803; in assay [1] (first compound 0.8 µM) it was 0.789; in assay [1] (first compound 2.53 µM) it was 0.771; in assay [1] (first compound 8 µM), 0.61; with Masitinib + Foretinib (first compound 0.01 µM), 1.03. The relative viability in the assay with Masitinib + Foretinib (first compound 0.03162 µM) amounted to 0.98; in the assay with Masitinib + Foretinib (first compound 0.1 µM), 1.02; with Masitinib + Foretinib (first compound 0.3162 µM), 1.02; with Masitinib + Foretinib (first compound 1 µM), 1; with Masitinib + Bortezomib (first compound 0.01 µM) it was 0.833; with Masitinib + Bortezomib (first compound 0.03162 µM), 0.936. Also, the relative viability was 0.784 with Masitinib + Bortezomib (first compound 0.1 µM); 0.878 with Masitinib + Bortezomib (first compound 0.3162 µM); 0.841 in the assay with Masitinib + Bortezomib (first compound 1 µM); 0.969 with Masitinib + Linsitinib (first compound 0.01 µM); 1 in the assay with Masitinib + Linsitinib (first compound 0.03162 µM); 0.951 in the assay with Masitinib + Linsitinib (first compound 0.1 µM). Also, the relative viability in the assay with Masitinib + Linsitinib (first compound 0.3162 µM) stood at 0.961; with Masitinib + Linsitinib (first compound 1 µM), 0.964.

On to PC-14, for which the relative viability was 0.527 in assay [1] (first compound 0.08 µM); 0.58 in assay [1] (first compound 0.253 µM); 0.497 in assay [1] (first compound 0.8 µM); 0.526 in assay [1] (first compound 2.53 µM); 0.555 in assay [1] (first compound 8 µM); 0.809 in the assay with Masitinib + Foretinib (first compound 0.01 µM). Also, the relative viability was determined as 0.831 with Masitinib + Foretinib (first compound 0.03162 µM); 0.857 with Masitinib + Foretinib (first compound 0.1 µM); 0.957 in the assay with Masitinib + Foretinib (first compound 0.3162 µM); 0.949 with Masitinib + Foretinib (first compound 1 µM); 0.786 with Masitinib + Bortezomib (first compound 0.01 µM); 0.878 with Masitinib + Bortezomib (first compound 0.03162 µM). The relative viability with Masitinib + Bortezomib (first compound 0.1 µM) worked out at 0.857; with Masitinib + Bortezomib (first compound 0.3162 µM) it was 0.84; with Masitinib + Bortezomib (first compound 1 µM) it was 0.846; with Masitinib + Linsitinib (first compound 0.01 µM) it was 0.918; with Masitinib + Linsitinib (first compound 0.03162 µM), 0.904; with Masitinib + Linsitinib (first compound 0.1 µM), 1. Also, the relative viability with Masitinib + Linsitinib (first compound 0.3162 µM) amounted to 0.976; with Masitinib + Linsitinib (first compound 1 µM), 0.999.

As for RERF-LC-KJ, the relative viability in assay [1] (first compound 0.08 µM) was 0.447; in assay [1] (first compound 0.253 µM), 0.476; in assay [1] (first compound 0.8 µM), 0.438; in assay [1] (first compound 2.53 µM), 0.382; in assay [1] (first compound 8 µM) it was 0.259; with Masitinib + Foretinib (first compound 0.01 µM), 0.734. For the same cell line, the relative viability with Masitinib + Foretinib (first compound 0.03162 µM) came out at 0.883; in the assay with Masitinib + Foretinib (first compound 0.1 µM), 0.987; in the assay with Masitinib + Foretinib (first compound 0.3162 µM), 0.746; in the assay with Masitinib + Foretinib (first compound 1 µM), 0.797; with Masitinib + Bortezomib (first compound 0.01 µM), 0.939; in the assay with Masitinib + Bortezomib (first compound 0.03162 µM) it was 1. The relative viability is 1.07 with Masitinib + Bortezomib (first compound 0.1 µM); 1.09 with Masitinib + Bortezomib (first compound 0.3162 µM); 1 with Masitinib + Bortezomib (first compound 1 µM); 0.878 with Masitinib + Linsitinib (first compound 0.01 µM); 0.849 in the assay with Masitinib + Linsitinib (first compound 0.03162 µM); 0.926 with Masitinib + Linsitinib (first compound 0.1 µM). Moreover, the relative viability with Masitinib + Linsitinib (first compound 0.3162 µM) turned out to be 0.871; with Masitinib + Linsitinib (first compound 1 µM), 0.736.

SK-LU-1: the relative viability in assay [1] (first compound 0.08 µM) was found to be 0.301; in assay [1] (first compound 0.253 µM), 0.293; in assay [1] (first compound 2.53 µM), 0.32; in assay [1] (first compound 8 µM) it was 0.302; with Masitinib + Foretinib (first compound 0.01 µM), 0.803; with Masitinib + Foretinib (first compound 0.03162 µM), 0.815. Moreover, the relative viability in the assay with Masitinib + Foretinib (first compound 0.1 µM) came out at 0.95; with Masitinib + Foretinib (first compound 0.3162 µM) it was 0.945; with Masitinib + Foretinib (first compound 1 µM), 0.931; with Masitinib + Bortezomib (first compound 0.01 µM), 1.2; in the assay with Masitinib + Bortezomib (first compound 0.03162 µM), 1.13; with Masitinib + Bortezomib (first compound 0.1 µM), 1.28. The relative viability with Masitinib + Bortezomib (first compound 0.3162 µM) was determined as 1.24; with Masitinib + Bortezomib (first compound 1 µM) it was 0.899; in the assay with Masitinib + Linsitinib (first compound 0.01 µM), 1.06; in the assay with Masitinib + Linsitinib (first compound 0.03162 µM), 1.22; in the assay with Masitinib + Linsitinib (first compound 0.1 µM), 1.26; with Masitinib + Linsitinib (first compound 0.3162 µM), 1.43. For the same cell line, in the assay with Masitinib + Linsitinib (first compound 1 µM), the relative viability amounted to 1.25.

With SW 1573, the relative viability in assay [1] (first compound 0.08 µM) is 0.184; in assay [1] (first compound 0.253 µM), 0.168; in assay [1] (first compound 0.8 µM) it was 0.279; in assay [1] (first compound 2.53 µM) it was 0.154; in assay [1] (first compound 8 µM), 0.185; in the assay with Masitinib + Foretinib (first compound 0.01 µM) it was 0.765. Moreover, the relative viability with Masitinib + Foretinib (first compound 0.03162 µM) amounted to 0.974; in the assay with Masitinib + Foretinib (first compound 0.1 µM), 0.97; with Masitinib + Foretinib (first compound 0.3162 µM) it was 0.784; with Masitinib + Foretinib (first compound 1 µM) it was 0.865; with Masitinib + Bortezomib (first compound 0.01 µM) it was 1.08; with Masitinib + Bortezomib (first compound 0.03162 µM), 0.979. For the same cell line, the relative viability amounted to 1.06 in the assay with Masitinib + Bortezomib (first compound 0.1 µM); 0.894 in the assay with Masitinib + Bortezomib (first compound 0.3162 µM); 1 in the assay with Masitinib + Bortezomib (first compound 1 µM); 0.689 with Masitinib + Linsitinib (first compound 0.01 µM); 0.848 with Masitinib + Linsitinib (first compound 0.03162 µM); 0.985 with Masitinib + Linsitinib (first compound 0.1 µM). The relative viability with Masitinib + Linsitinib (first compound 0.3162 µM) stood at 0.838; with Masitinib + Linsitinib (first compound 1 µM), 0.803.

Turning to UMC-11, the relative viability in assay [1] (first compound 0.08 µM) amounted to 0.219; in assay [1] (first compound 0.253 µM), 0.206; in assay [1] (first compound 0.8 µM), 0.193; in assay [1] (first compound 2.53 µM), 0.185; in assay [1] (first compound 8 µM), 0.224; in the assay with Masitinib + Foretinib (first compound 0.03162 µM), 0.951. Moreover, the relative viability with Masitinib + Foretinib (first compound 0.1 µM) worked out at 1.12; with Masitinib + Foretinib (first compound 0.3162 µM), 1.17; in the assay with Masitinib + Foretinib (first compound 1 µM) it was 1.15; in the assay with Masitinib + Bortezomib (first compound 0.01 µM), 0.793; with Masitinib + Bortezomib (first compound 0.03162 µM) it was 0.743; with Masitinib + Bortezomib (first compound 0.1 µM), 0.79. Also, the relative viability came out at 1.03 with Masitinib + Bortezomib (first compound 0.3162 µM); 0.714 with Masitinib + Bortezomib (first compound 1 µM); 0.982 with Masitinib + Linsitinib (first compound 0.01 µM); 1.12 with Masitinib + Linsitinib (first compound 0.03162 µM); 1.27 in the assay with Masitinib + Linsitinib (first compound 0.1 µM); 1.07 with Masitinib + Linsitinib (first compound 0.3162 µM). In addition, in the assay with Masitinib + Linsitinib (first compound 1 µM), the relative viability worked out at 1.25.
